Test results: patent publication US10947216B2, “Amide compounds and method for making and using” (Rigel Pharmaceuticals, Inc., priority 2016, dated 2021)
Where a name gives a salt, the structure may show the parent alone.

Test system: IL-23p19
Test: LPS Induced IL23p19 in THP-1 Cells (with IFNγ Primed) Assay
Assay type: cell-based, human
Details: Homo sapiens, THP-1, THP-1 cells, IFNγ (50 ng/mL) primed, 1 hour compound pre-incubation, LPS 1 ug/mL 18 hours, 10 pt; read-out: IL23-p19 ELISA, THP1-IFNy, LPS, 10 pt EC50
Procedure: LPS Induced IL23p19 in THP-1 Cells (with IFNγ Primed) Assay
Method THP-1 Cells Stimulation:
On day 1, 50K/well THP-1 cells were seeded and primed with IFNγ (50 ng/mL) in 384-well plates for about 18 hours in RPMI media with 10% FBS. […] 50 μL/well 2× compound was added to 50 μL/well THP-1 cells (with IFNγ primed) in duplicate in 384 well tissue culture plates. […] Day 3, after stimulation for 18 hours at 37° C., 5% CO2, the assay plate was centrifuged and 70 μL/well supernatant was harvested. IL-23p19 protein in 70 μL/well of supernatant was measured by sandwich ELISA, and 25 μl/well Cell Titer Glo reagent was added to the remaining cells to measure compound toxicity.
Human IL-23p19 Sandwich ELISA:
Maxisorp immuno ELISA plates were pre-coated with 25 μL/well of anti-IL-23p19 capture antibody (2.5 ug/mL) in PBS overnight at room temperature. After washing with 1×PBST, the plates were blocked using 100 μL/well of 1% BSA in PBS for 2 hours at room temperature. The plates were washed three times with 1×PBST and 70 μL/well supernatant were added. The plates were incubated at room temperature for 2 hours with shaking and washed three times with 1×PBST. 25 μL/well of biotin labeled anti-IL-12(p40/p70) detection antibody (100 ng/mL) in PBS with 1% BSA was added and the plates were incubated at room temperature for 2 hours with shaking. After washing three times with 1×PBST, 25 μL/well of streptavidin-HRP (1:200) in PBS with 1% BSA was added and the plates were incubated at room temperature for 20 minutes with shaking. The plates were washed three times with 1×PBST and 25 μL/well of Super Signal ELISA Pico Chemiluminescent Substrate were added. The plates were read with a luminometer, and the chemiluminescence values were entered into Athena (Rigel) for curve fitting, EC50 calculation, and database storage.

| SMILES | EC50 [µM] |
| --- | --- |
| O=C(O)c1cncc(-c2cccc(C(=O)Nc3cn(C4COC4)nc3-c3ccccn3)n2)c1 [Compound I-135, 6-((1-(oxetan-3-yl)-3-(pyridin-2-yl)-1H-pyrazol-4-yl)carbamoyl)-[2,3′-bipyridine]-5′-carboxylic acid] | 41.7 |
| COCCn1cc(NC(=O)c2cccc(-c3cncc(C)c3)n2)c(-c2ccccn2)n1 [Compound I-168, N-(1-(2-methoxyethyl)-3-(pyridin-2-yl)-1H-pyrazol-4-yl)-5′-methyl-[2,3′-bipyridine]-6-carboxamide] | 0.541 |
| Cn1cc(NC(=O)c2cccc(-c3cccc(NS(C)(=O)=O)c3)n2)c(-c2ccccn2)n1 [Compound I-60, N-(1-methyl-3-(pyridin-2-yl)-1H-pyrazol-4-yl)-6-(3-(methylsulfonamido)phenyl)picolinamide] | 14.8 |
| O=C(Nc1cn(C(CO)CO)nc1-c1ccccn1)c1cccc(-c2cn[nH]c2)n1 [Compound I-127, N-(1-(1,3-dihydroxypropan-2-yl)-3-(pyridin-2-yl)-1H-pyrazol-4-yl)-6-(1H-pyrazol-4-yl)picolinamide] | 18.2 |
| COc1ccc(-c2nn(C)cc2NC(=O)c2cccc(-c3cncc(OC(C)C)c3)n2)nc1 [Compound I-70, 5′-isopropoxy-N-(3-(5-methoxypyridin-2-yl)-1-methyl-1H-pyrazol-4-yl)-[2,3′-bipyridine]-6-carboxamide] | 2.21 |
| Cn1cc(NC(=O)c2cccc(-c3ccnc(NCC4CC4)c3)n2)c(-c2ccccn2)n1 [Compound I-159, 2′-((cyclopropylmethyl)amino)-N-(1-methyl-3-(pyridin-2-yl)-1H-pyrazol-4-yl)-[2,4′-bipyridine]-6-carboxamide formate] | 14.7 |
| O=C(Nc1c[nH]nc1-c1ccccn1)c1cccc(-c2ccncc2)n1 [Compound I-106, N-(3-(pyridin-2-yl)-1H-pyrazol-4-yl)-[2,4′-bipyridine]-6-carboxamide formate] | 4.94 |
| Cn1cc(NC(=O)c2nccc(Nc3cc[nH]n3)n2)c(-c2ccccn2)n1 [Compound I-128, 4-((1H-pyrazol-3-yl)amino)-N-(1-methyl-3-(pyridin-2-yl)-1H-pyrazol-4-yl)pyrimidine-2-carboxamide] | 24.2 |
| Cn1cc(NC(=O)c2cccc(C3=CCNCC3)n2)c(-c2ccccn2)n1 [Compound I-62, N-(1-methyl-3-(pyridin-2-yl)-1H-pyrazol-4-yl)-1′,2′,3′,6′-tetrahydro-[2,4′-bipyridine]-6-carboxamide] | 28 |
| Cn1cc(NC(=O)c2cccc(C3=CCCN(C(=O)OC(C)(C)C)C3)n2)c(-c2ccccn2)n1 [Compound I-64, tert-butyl 6-((1-methyl-3-(pyridin-2-yl)-1H-pyrazol-4-yl)carbamoyl)-5′,6′-dihydro-[2,3′-bipyridine]-1′(2′H)-carboxylate] | 13.3 |
| Cn1cc(NC(=O)c2nccc(Nc3cn(C)nc3-c3ccccn3)n2)c(-c2ccccn2)n1 [Compound I-118, N-(1-methyl-3-(pyridin-2-yl)-1H-pyrazol-4-yl)-4-((1-methyl-3-(pyridin-2-yl)-1H-pyrazol-4-yl)amino)pyrimidine-2-carboxamide] | 130 |
| COCCOCCn1cc(NC(=O)c2cccc(-c3ccncc3)n2)c(-c2ccccn2)n1 [Compound I-140, N-(1-(2-(2-methoxyethoxy)ethyl)-3-(pyridin-2-yl)-1H-pyrazol-4-yl)-[2,4′-bipyridine]-6-carboxamide formate] | 10.9 |
| Cc1n[nH]cc1Nc1ccnc(C(=O)Nc2cn(C)nc2-c2ccccn2)n1 [Compound I-129, 4-((3-methyl-1H-pyrazol-4-yl)amino)-N-(1-methyl-3-(pyridin-2-yl)-1H-pyrazol-4-yl)pyrimidine-2-carboxamide] | 72.9 |
| Cn1cc(NC(=O)c2cccc(-c3cncc(N4CCOCC4)c3)n2)c(-c2ccccn2)n1 [Compound I-37, N-(1-methyl-3-(pyridin-2-yl)-1H-pyrazol-4-yl)-5′-morpholino-[2,3′-bipyridine]-6-carboxamide] | 0.587 |
| CCN(CC)CCn1cc(NC(=O)c2cccc(-c3ccncc3)n2)c(-c2ccccn2)n1 [Compound I-104, N-(1-(2-(diethylamino)ethyl)-3-(pyridin-2-yl)-1H-pyrazol-4-yl)-[2,4′-bipyridine]-6-carboxamide] | 74.1 |
| O=C(Nc1cn(C(CO)CO)nc1-c1ccccn1)c1cccc(-c2cccnc2)n1 [Compound I-125, N-(1-(1,3-dihydroxypropan-2-yl)-3-(pyridin-2-yl)-1H-pyrazol-4-yl)-[2,3′-bipyridine]-6-carboxamide] | 3.92 |

The remaining lines, values ahead:

| EC50 [µM] | SMILES |
| --- | --- |
| 15.2 | CNc1cccc(-c2cccc(C(=O)Nc3cn(C)nc3-c3ccccn3)n2)c1 [Compound I-58, N-(1-methyl-3-(pyridin-2-yl)-1H-pyrazol-4-yl)-6-(3-(methylamino)phenyl)picolinamide] |
| 72.1 | Cc1cccc(-c2cccc(C(=O)Nc3cn(C)nc3-c3ccccn3)n2)c1 [Compound I-49, N-(1-methyl-3-(pyridin-2-yl)-1H-pyrazol-4-yl)-6-(m-tolyl)picolinamide] |
| 3.46 | Cn1cc(NC(=O)c2cccc(-c3cnc4cc[nH]c4c3)n2)c(-c2ccccn2)n1 [Compound I-45, N-(1-methyl-3-(pyridin-2-yl)-1H-pyrazol-4-yl)-6-(1H-pyrrolo[3,2-b]pyridin-6-yl)picolinamide] |
| 58.3 | Cn1cc(NC(=O)c2cccc(-c3cncc(C(F)(F)F)c3)n2)c(-c2ccccn2)n1 [Compound I-17, N-(1-methyl-3-(pyridin-2-yl)-1H-pyrazol-4-yl)-5′-(trifluoromethyl)-[2,3′-bipyridine]-6-carboxamide] |
| 150 | Cn1cc(NC(=O)c2cccc(-c3ccncc3)n2)c(-c2ccccn2)n1 [Compound I-160, N-(1-methyl-3-(pyridin-2-yl)-1H-pyrazol-4-yl)-[2,4′-bipyridine]-6-carboxamide 2,2,2-trifluoroacetate] |
| 3.5 | Cn1cc(NC(=O)c2cccc(-c3ccc4[nH]ccc4c3)n2)c(-c2ccccn2)n1 [Compound I-46, 6-(1H-indol-5-yl)-N-(1-methyl-3-(pyridin-2-yl)-1H-pyrazol-4-yl)picolinamide] |
| 1.52 | Cn1cc(NC(=O)c2cccc(-c3cncc(C(C)(C)O)c3)n2)c(-c2ccccn2)n1 [Compound I-14, 5′-(2-hydroxypropan-2-yl)-N-(1-methyl-3-(pyridin-2-yl)-1H-pyrazol-4-yl)-[2,3′-bipyridine]-6-carboxamide] |
| 3.6 | Cn1cc(NC(=O)c2cccc(-c3ccc4cc[nH]c4c3)n2)c(-c2ccccn2)n1 [Compound I-47, 6-(1H-indol-6-yl)-N-(1-methyl-3-(pyridin-2-yl)-1H-pyrazol-4-yl)picolinamide] |
| 128 | COc1ccc(-c2cccc(C(=O)Nc3cn(C)nc3-c3ccccn3)n2)cn1 [Compound I-20, 6′-methoxy-N-(1-methyl-3-(pyridin-2-yl)-1H-pyrazol-4-yl)-[2,3′-bipyridine]-6-carboxamide] |
| 21.5 | Cn1cc(NC(=O)c2cccc(-c3cncc(F)c3)n2)c(-c2ccccn2)n1 [Compound I-3, 5′-fluoro-N-(1-methyl-3-(pyridin-2-yl)-1H-pyrazol-4-yl)-[2,3′-bipyridine]-6-carboxamide] |
| 1900 | Cn1cc(NC(=O)c2cccc(-c3cncc(C#N)c3)n2)c(-c2ccccn2)n1 [Compound I-4, 5′-cyano-N-(1-methyl-3-(pyridin-2-yl)-1H-pyrazol-4-yl)-[2,3′-bipyridine]-6-carboxamide] |
| 5.27 | Cn1cc(NC(=O)c2cccc(-c3cccc(N)c3)n2)c(-c2ccccn2)n1 [Compound I-57, 6-(3-aminophenyl)-N-(1-methyl-3-(pyridin-2-yl)-1H-pyrazol-4-yl)picolinamide] |
| 63.6 | Cc1cc(-c2cccc(C(=O)Nc3cn(C)nc3-c3ccccn3)n2)ccn1 [Compound I-15, 2′-methyl-N-(1-methyl-3-(pyridin-2-yl)-1H-pyrazol-4-yl)-[2,4′-bipyridine]-6-carboxamide] |
| 1.39 | Cn1cc(NC(=O)c2cccc(-c3cncc(S(C)(=O)=O)c3)n2)c(-c2ccccn2)n1 [Compound I-39, N-(1-methyl-3-(pyridin-2-yl)-1H-pyrazol-4-yl)-5′-(methylsulfonyl)-[2,3′-bipyridine]-6-carboxamide] |
| 116 | Cn1cc(NC(=O)c2cccc(-c3ccnc(C(N)=O)c3)n2)c(-c2ccccn2)n1 [Compound I-41, N6-(1-methyl-3-(pyridin-2-yl)-1H-pyrazol-4-yl)-[2,4-bipyridine]-2′,6-dicarboxamide] |
